Source: US20100022629A1, “Dietary Methods and Compositions for Enhancing Metabolism and Reducing Reactive Oxygen Species” (Elixirin, priority 2006, published 2010)

What was measured:
Fischer 344 male rats = experiment: Morris water maze spatial memory test; assay type: in vivo; conditions: fed 7 weeks, 5 per group, SD around 20%
Text: FIG. 1 of 2 depicts measurements of spatial memory in (Fischer 344 male rats) subjected to a water maze test, after treatment with carnitine, lipoic acid, and/or polyphenol. […] The Morris maze task tests spatial memory by requiring rats to find a submerged platform in a pool of water using external visual cues (Morris, R. 1984; J. Neurosci. Methods, 11:47-60; Schenk, F. and Morris, R, Exp. Brain Res. 58:11-28, 1985). The rats in the experimental group (5 each) were fed either 0.5% (wt/vol) acetyl-L-carnitine in water, 1.0% (wt/vol) polyphenol in water; 0.2% (wt/wt) lipoic acid in AIN93M diet, or a combination of the above. Rats were acclimated for one week before experiments. Rats were fed for the above treatment for 7 weeks before tests. Trials (4 consecutive days, 4 trials per day) were conducted and the results averaged. The standard deviation is around 20%. Control rats were fed with water and AIN93M diet only.

[1] = tested on: 8-hydroxy-2′-deoxyguanosine/8-hydroxyguanosine; experiment: Oxidation level of DNA in hippocampus sections (anti-8-hydroxy-2′-deoxyguanosine/8-hydroxyguanosine immunocytochemistry); assay type: in vivo, rats; conditions: rat hippocampus, fed 7 weeks, mean of 5 animals, SD about 15%
Text: The rats in the experimental group (5 each) were fed either 0.5% (wt/vol) acetyl-L-carnitine in water, 1.0% (wt/vol) polyphenol in water; 0.2% (wt/wt) lipoic acid in AIN93M diet, or a combination of the above. Rats were acclimated for one week before experiments. Rats were fed for the above treatment for 7 weeks before tests. Control rats were fed with water and AIN93M diet only. For assaying DNA oxidation, rats from each treatment group (5 animals per group) was anesthetized with ether and perfused with paraformaldehyde. The brain was removed and postfixed for paraffin sections. Sections of hippocampus were incubated with anti-8-hydroxy-2′-deoxyguanosine/8-hydroxyguanosine and visualized by using standard immunocytochemical methods. Quantification of oxidation was done as described in Liu, J K, et al., (Proc. Natl. Acad. Sci. USA, 99:[…], 2002). Values are a mean of 5 animals. The standard deviation is about 15%.

[2] = tested on: men and women diagnosed with a recent MI; conditions: 4 grams/day for 12 months plus standard pharmacological treatment; control group 12.5%; cited from earlier work

Compound | mastery of the water maze over no treatment (Fischer 344 male rats) | DNA oxidation level compared with rats having no treatment [1] | mortality after one year of treatment [2] [%]
O=C(O)CCCCC1CCSS1 (centres unmarked) [lipoic acid, 1,2-dithiolane-3-pentanoic acid] | ~79% | ~82% | –
C[N+](C)(C)C[C@H](O)CC(=O)[O-] [L-carnitine] | – | – | 1.2
C[N+](C)(C)CC(O)CC(=O)[O-] (centres unmarked) [carnitine] | approximately 80% | approximately 112% | –
